# Where no end group is shown, it is not given here. The star is where a group is joined. Octanoyl = CCCCCCCC(=O)*
# Legend:
# MDA-MB-231 cells = assay: 3D/2D cell growth assay (cell number, Hoechst); type: cell-based, human; settings: for cell growth in the presence of serum: 0.05-5 μM MK2206, 0.1-10 μM BKM120; for forskolin-stimulated cell growth: 10 μM forskolin, 3D
# MDA-MB-468 cells = assay: 3D/2D cell growth assay (cell number, Hoechst); type: cell-based, human; settings: for cell growth in the presence of serum: 0.05-5 μM MK2206, 0.1-10 μM BKM120; for forskolin-stimulated cell growth: 10 μM forskolin; for growth of MDA-MB-468 cells: 60 nM KT5720, 1.4 μM SQ22536, 15 μM cAMPs-RP
# Description: (§1) Human BC Cells. Human breast cancer cell lines, MCF7, T47D, ZR75, MDA-MB-231, MDA-MB-468, SKBR3, Hs578T and HEK293T, DU4475 and MDA-MB-157 were purchased from ATCC, USA. Human 4-OH tamoxifen resistant breast cancer cells (LCC2), RKO, RKO-T29, RKO-A19, HCT116, HCT116-HWT, HCT116-HMUT were cultured using methods were performed as described previously (Yun et al., Science 325(5947):1555-9 (2009)). MCF7, MDA-MB-231, MDA-MB-468, MDA-MB-157, Hs578T, HEK293T were grown in DMEM (Invitrogen), supplemented with 10% fetal calf serum (FCS) (Invitrogen), 100U/ml penicillin/streptomycin and 1% sodium pyruvate. ZR75, T47D, SKBR3 and DU4475 were grown in RPMI, supplemented with 10% FCS, 100 U/ml penicillin/streptomycin and 2 mM L-Glutamine (ThermoFisher Scientific). LCC2 were grown in phenol red-free DMEM, supplemented with 10% charcoal stripped serum (CCS; ThermoFisher Scientific), 100 U/ml penicillin/streptomycin and 1% sodium pyruvate. All cell lines were grown at 37° C. with 5% CO2 in a humidified environment. Mycoplasma detection of all cell lines were tested and negative results were observed.
# (§2) Cell Growth and Proliferation Assays. 3D culture of a panel of breast cancer and colon cancer cells were seeded at a density of 3,000 cells per well in media containing 30% growth-factor-reduced matrigel or 5 mg/ml Collagen in optical-bottom 96-well plates. Patient-derived breast tumors were first dissociated into single cell suspensions and seeded at a density of 32,000 cells per well in media containing 30% matrigel. […] At the end of the experimental time point, cells were fixed in 100% methanol. The total number of cells, or the number of dead or proliferating cells was assessed using Hoechst, EarlyTox Dead Assay Kit (Molecular Devices), or Click-IT EdU Kit (ThermoFisher Scientific), respectively, and analyzed according to the manufacturer's protocols. Cells were then imaged with >95% well coverage (magnification of 10× with 3×3 tiled images) per field using confocal microscopy. The number of nuclei/Ethidium Homodimer-III+/EdU+ cells were counted using Imaris software (Bitplane).
# [1] = tested on: ERK activity in EKAR-transfected MCF7 cells; assay: ERK activity assay (EKAR FRET reporter); type: cell-based, human; settings: 10% serum; 3D; time-lapse confocal
# Description: ERK Activity Assay: The EKAR FRET-based system was used to monitor ERK activity. Briefly, breast cancer cells were co-transfected with pPBJ-puro-FRET3-EKAR-nls and the pCMV-hyPBase transposase vector, and stably transfected cells selected using FACS for EYFP and ECFP-positive cells. Cells were then cultured in 3D and serum-starved overnight. Prior live cell time-lapse confocal imaging, medium was replaced with 100 pM unacylated ghrelin and 10% serum. Images were acquired following FRET and analyzed using Imaris software. Data normalized to ECFP signal.
# MCF7 cells = assay: 3D/2D cell growth assay (cell number, Hoechst); type: cell-based, human; settings: for serum-stimulated growth (cell number): 60 nM KT5720, 1.4 μM SQ22536, 15 μM cAMPs-RP
# Description: as §1, §2
# MDA-MB-468 xenografts = assay: Xenograft in NSG mice; type: in vivo, mouse; settings: 200 μg/kg s.c., 28 days
# Description: (§3) Animal Experimental Model. All animal experiments were performed in Monash Animal Research Platform at Hudson Institute for Medical Research and Research Animal Resource Center at Weill Cornell Medicine. Experimental procedures were in accordance with guidelines for Animal Care and Use, approved by Monash University Animal Ethics Committee (MMCA2014/20) and Weill Cornell Medicine IACUC Protocol (REQ00016929). Athymic Balb/c nude, FVB/N (Animal Resources Centre, Australia) and NSG (NOD Scid gamma; NOD.CgPrkdcscidIl2rgtmlwjl/SzJ) mice (The Jackson laboratory and Monash Breeding Colony platform) were used for this study. All mouse procedures were performed with 6-8 weeks old female mice and treatments administered via subcutaneous injection. See additional details included herein for specific in vivo experimental procedures.
# Additional studies were also performed in NSG mice. MDA-MB-468 (1×10^6) were injected into the mammary fat pad of 6-week old NSG (immunodeficient) mice. Once the tumor reached a volume of 150 mm^3, the mice were randomized to receive saline (vehicle control) or AZP531 via subcutaneous injection. After 28 days of treatment, the mice were humanely sacrificed by cervical dislocation.
# J110 allografts = assay: Syngeneic allograft in FVB/N mice; type: in vivo, mouse; settings: AZP531 200 μg/kg s.c.; 7 days; FVB mice
# Description: as §3
# A syngeneic breast cancer mouse model was created in female FVB/N mice. 1.25×10^5 J110 cells were injected into the mammary fat pad of 6-week old FVB (Immunocompetent) mice. […]
# Measurement of Apoptotic Cells from Xenograft/Allograft Studies. MCF7, ZR75 and J110 tumor sections post treatment with 100 μg/kg or 200 μg/kg of unacylated ghrelin were assessed using Hoechst nuclear stain and confocal microscopy. Quantification of cells with apoptotic nuclei was performed using Image J.
# [2] = tested on: patient-derived breast cancer cells; assay: 3D growth of patient-derived breast cancer cells; type: cell-based, human
# Excerpt: Human BC Tissues and Preclinical Patient Derived Xenograft Models. Patient-derived breast tumors (PDX, (Zhang, et al., Cancer Res 15:4885-97 (2013)) and estrogen receptor positive (ER^+) breast tumors were used under IRB-approved protocols (WCM 1410015560 and 1603017108). All patients provided written informed consent. Cells were isolated and maintained in DMEM, supplemented with 10% fetal calf serum (FCS), 100U/ml penicillin/streptomycin and 1% sodium pyruvate (ThermoFisher Scientific). Cells were grown at 37° C. in a humidified atmosphere with 5% CO2. See Method Details for cell growth and proliferation work specific procedures.
# as §2
# [3] = Allas et al. 2016; cited from earlier work
# [4] = tested on: MCF7, MDA-MB-468 and MDA-MB-231 cells; assay: Cy3-tagged UAG binding assay in 3D cultures; parameters: species or system human; settings: 1 μM Cy3-tagged UAG with 10% serum; live confocal imaging
# Description: Binding Assays. Cy3-tagged UAG (Pepmic Co, LtD) binding assays were performed in 3D cultures of breast cancer cells. MCF7, […] and MDA-MB231 cells were seeded at a density of 3,000 cells per well in Matrigel in optical-bottom 96-well plates. Cells were serum-starved overnight. Hoechst nuclear stain was added prior to the live cell imaging. 1 μM Cy3-tagged UAG with 10% serum was then added and time-lapse confocal imaging was performed to examine the localization of peptide binding.
# [5] = tested on: panel of breast cancer cell lines; assay: 3D cell growth assay in a panel of breast cancer cell lines; type: cell-based, human; settings: 100 pM
# Description: as §1, with “All cell lines were grown at 37° C. with 5% CO2 in a humidified environment. Mycoplasma detection of all cell lines were tested and negative results were observed.” left out
# Cell Growth and Proliferation Assays. […] The total number of cells, or the number of dead or proliferating cells was assessed using Hoechst, EarlyTox Dead Assay Kit (Molecular Devices), or Click-IT EdU Kit (ThermoFisher Scientific), respectively, and analyzed according to the manufacturer's protocols. […] The number of nuclei/Ethidium Homodimer-III+/EdU+ cells were counted using Imaris software (Bitplane).
compound,measurement,setting,value
Nc1cc(C(F)(F)F)c(-c2cc(N3CCOCC3)nc(N3CCOCC3)n2)cn1 [BKM120],cell growth in the presence of serum,MDA-MB-231 cells,inhibited
same,cell growth in the presence of serum,MDA-MB-468 cells; serum,inhibited
N#CC(=C(/N)Sc1ccccc1N)/C(C#N)=C(\N)Sc1ccccc1N [U0126],serum-stimulated EKAR (ERK) activity,[1],inhibited
same,forskolin-stimulated cell growth,MDA-MB-231 cells,significant reduction
same,forskolin-stimulated cell growth,"MCF7 cells; 10 μM forskolin, 3D",significant reduction
same,forskolin-stimulated cell growth,MDA-MB-468 cells; 3D,significant reduction
Nc1ncnc2c1ncn2C1CCCO1 (stereo not shown) [SQ22536],serum-stimulated growth (cell number),MCF7 cells; serum,significant reduction in cell number
same,growth of MDA-MB-468 cells,MDA-MB-468 cells,suppress the growth
"SPEHQRVQ (also: cyclic, ring type not given here) [AZP531]",potency compared to doxorubicin,"MCF7 cells; 3D, serum",greater potency than doxorubicin
same,serum-stimulated growth of cells,"MCF7 cells; 3D, serum, dose-response",dose-dependent inhibition
same,extent of cell number reduction,"MCF7 cells; 3D, serum, unlike doxorubicin",did not reduce cell number beyond that which was stimulated by serum
same,potency compared to doxorubicin,"MDA-MB-468 cells; 3D, serum",greater potency than doxorubicin
same,serum-stimulated growth of cells,"MDA-MB-468 cells; 3D, serum, dose-response",dose-dependent inhibition
same,extent of cell number reduction,"MDA-MB-468 cells; 3D, serum, unlike doxorubicin",did not reduce cell number beyond that which was stimulated by serum
same,tumor cell growth (tumor volume),MDA-MB-468 xenografts,suppression of cell growth
same,tumor cell growth (tumor volume),J110 allografts,suppression of cell growth
same,serum-stimulated growth of patient-derived TNBC cells,[2]; dose-response,dose-dependent inhibition
same,potency compared to doxorubicin,"[2]; patient-derived TNBC cells, serum",greater potency than doxorubicin
same,extent of cell number reduction,"[2]; patient-derived TNBC cells, serum, unlike doxorubicin",did not reduce cell number beyond that which was stimulated by serum
same,pharmacokinetic properties relative to unacylated ghrelin,[3],better pharmacokinetic properties than unacylated ghrelin
same,safety profile,[3],established safety profile
NC1(c2ccc(-c3nc4ccn5c(=O)[nH]nc5c4cc3-c3ccccc3)cc2)CCC1 [MK2206],forskolin-stimulated cell growth,MDA-MB-231 cells,inhibit
same,cell growth in the presence of serum,MDA-MB-231 cells,inhibited
same,forskolin-stimulated cell growth,MDA-MB-468 cells; 3D,inhibit
same,cell growth in the presence of serum,MDA-MB-468 cells; serum,inhibited
"Cy3-labeled unacylated ghrelin: Cy3-tagged UAG (Pepmic Co, LtD) used for binding assays (GSSFLSPEHQRVQQRKESKKPPAKLQP; also: Cy3 label, position not given here; UniProt Q9UBU3 24-50, looked up)",binding to responsive and non-responsive cells,[4],Binding
GSS(n-octanoyl)FLSPEHQRVQQRKESKKPPAKLQPR (GSS(Octanoyl)FLSPEHQRVQQRKESKKPPAKLQPR) [acyl ghrelin],breast cancer cell growth in serum-stimulated conditions (FIG. 15G),[5],inhibited breast cancer cell growth
CCCCCCOC(=O)[C@]1(O)C[C@@H]2O[C@@]1(C)n1c3ccccc3c3c4c(c5c6ccccc6n2c5c31)C(=O)NC4 [KT5720],serum-stimulated growth (cell number),MCF7 cells; serum,significant reduction in cell number
same,growth of MDA-MB-468 cells,MDA-MB-468 cells,suppress the growth
Nc1ncnc2c1ncn2[C@@H]1O[C@@H]2CO[P@@](O)(=S)O[C@H]2[C@H]1O [cAMPS-RP],serum-stimulated growth (cell number),MCF7 cells; serum,significant reduction in cell number
same,growth of MDA-MB-468 cells,MDA-MB-468 cells,suppress the growth
